What was measured:
[1] = tested on: FHIT−/− C57BL/6 mice in hypoxia; assay: Hypoxia-induced PH in Fhit−/− mice; assay type: in vivo, mouse
Experimental: Experimental PAH will be assessed based on Right Ventricular (RV) Systolic Pressure measurements through right jugular vein catheterization and RV hypertrophy was assessed by the weight ratio of the RV to left ventricle+septum. Vessel loss and muscularization of lung vessels will be visualized by MOVAT pentachrome stain or IF staining with αSMA and avWF antibodies.
(§1) Fhit homozygous (−/−) mice were obtained from Kay F. Huebner (Ohio State University). Bmpr2+/− mice were a gift from Marlene Rabinovitch (Stanford University). Adult wildtype C57BL/6 mice, Bmpr2+/− or Fhit−/− mice at 8-10 weeks of age were housed in chronic hypoxia (10% O2) for 3 weeks, followed by a recovery period of 4 weeks in normoxia (21% O2). […] Development of experimental PH was induced in adult Sprague Dawley rats (8 weeks old, 180-220 g) through a subcutaneous dose of the VEGFR-2 inhibitor SUGEN5416 (20 mg/kg body weight), followed by exposure to chronic hypoxia (10% O2) for 3 weeks and normoxia for 5 weeks (21% O2), as previously described(12). […] Right Ventricular (RV) Systolic Pressure was measured through right jugular vein catheterization, and RV hypertrophy (RVH) was assessed by the weight ratio of the RV to left ventricle and septum (LV+S).
FIGS. 23B-23C, ΔΔCt analysis of mRNA expression in lung tissue.

[2] = tested on: hypoxia-induced experimental PAH in C57BL/6 and BMPR2+/− C57BL/6 mice; assay: Hypoxia-induced experimental PAH in wildtype and Bmpr2+/− mice; assay type: in vivo, mouse
Experimental: Right Ventricular (RV) Systolic Pressure was measured through right jugular vein catheterization and RV hypertrophy was assessed by the weight ratio of the RV to left ventricle+septum. Vessel loss and muscularization of lung vessels were visualized by MOVAT pentachrome stain. […] Arrows indicate vessel position. FIG. 3F, Representative MOVAT lung histology depicting vessel structure. Arrows indicate vessel position.
as §1
FIG. 24E, Representative MOVAT lung histology. Arrows indicate vessel position. FIGS. 24F-24G, Representative MOVAT lung histology of large (FIG. 24F) and small vessels (FIG. 24G) respectively. Arrows indicate vessel position.

[3] = C57BL/6 FHIT−/− mice, 3 weeks hypoxia, 5 mg/kg daily by osmotic pump, method in future tense
[4] = Fhit−/− mice, hypoxia, 5 mg/kg/day via mini osmotic pump
[5] = 3 weeks hypoxia, 5 mg/kg daily by mini-osmotic pump, C57BL/6 and BMPR2+/− mice
[6] = 3 weeks hypoxia, 15 mg/kg/day by mini-osmotic pump, Bmpr2+/− and wildtype mice

**Q.** Which results are given for `Cn1cc(C2=C(c3cn(C4CCN(Cc5ccccn5)CC4)c4ccccc34)C(=O)NC2=O)c2ccccc21` [Enzastaurin, 3-(1-methyl-1H-indol-3-yl)-4-[1-[1-(pyridin-2-ylmethyl)piperidin-4-yl]-1H-indol-3-yl]-1H-pyrrole-2,5-dione]?
**A.** FHIT levels (FIG. 5C) [1, 3]: fails to increase FHIT levels; PKC levels (FIG. 5C) [1, 3]: effectively downregulating PKC levels; Pulmonary hypertension development (FIG. 5C) [1, 3]: does not protect from pulmonary hypertension development; BMPR2 expression in whole lung tissue [1, 4]: increased; FHIT mRNA expression in lung tissue [1, 4]: unmeasurably low; ID1 expression in whole lung tissue [1, 4]: increased; PH [1, 4]: improved PH; RVSP ([1]; male FHIT−/− mice, 3 weeks hypoxia, 5 mg/kg by mini-osmotic pump, vs Sham control): protects from increased RVSP; Hypoxia-induced PH (changes in RVSP, RVH and pulmonary physiology) ([2]; 2-week treatment, 15 mg/kg/day, Bmpr2+/− and wild-type C57BL/6 mice): attenuated; Right ventricle systolic pressure (RVSP) ([2]; 3 weeks hypoxia, 5 mg/kg daily by mini-osmotic pump, vs hypoxia vehicle control): partial reduction; Full or partial muscularization of AW and AD vessels [2, 5]: significantly ameliorated; Loss of alveolar wall (AW) and alveolar duct (AD) pulmonary vessels [2, 5]: significantly ameliorated; Right ventricle (RV) hypertrophy (RV/LV+S) [2, 5]: substantial reduction; Muscularization of distal vessels [2, 6]: prevented; RVH increase [2, 6]: prevented; RVSP increase [2, 6]: prevented; Vascular rarefaction [2, 6]: prevented
